Drawing on ChEMBL document CHEMBL1125118, “Penta- and hexadienoic acid derivatives: a novel series of 5-lipoxygenase inhibitors” (J Med Chem, 1990), this text covers ED50 and IC50 for 16 molecules.

The structures appear in SMILES notation.

The term IC50 denotes the concentration that gives 50% inhibition.

In assay [1] the test system is Mus musculus. Description: In vivo inhibition of AA induced ear oedema in mice following topical administration. It counts as functional.
Assay [2] relates to Mus musculus. Put plainly: In vivo inhibition of ear oedema in mice following p.o. administration. The format is functional. Conditions: po.
For another assay, the target named is T1, Cyclooxygenase (Rattus norvegicus, UniProt P35355+Q63921).
T1 sequence (P35355 whole entry): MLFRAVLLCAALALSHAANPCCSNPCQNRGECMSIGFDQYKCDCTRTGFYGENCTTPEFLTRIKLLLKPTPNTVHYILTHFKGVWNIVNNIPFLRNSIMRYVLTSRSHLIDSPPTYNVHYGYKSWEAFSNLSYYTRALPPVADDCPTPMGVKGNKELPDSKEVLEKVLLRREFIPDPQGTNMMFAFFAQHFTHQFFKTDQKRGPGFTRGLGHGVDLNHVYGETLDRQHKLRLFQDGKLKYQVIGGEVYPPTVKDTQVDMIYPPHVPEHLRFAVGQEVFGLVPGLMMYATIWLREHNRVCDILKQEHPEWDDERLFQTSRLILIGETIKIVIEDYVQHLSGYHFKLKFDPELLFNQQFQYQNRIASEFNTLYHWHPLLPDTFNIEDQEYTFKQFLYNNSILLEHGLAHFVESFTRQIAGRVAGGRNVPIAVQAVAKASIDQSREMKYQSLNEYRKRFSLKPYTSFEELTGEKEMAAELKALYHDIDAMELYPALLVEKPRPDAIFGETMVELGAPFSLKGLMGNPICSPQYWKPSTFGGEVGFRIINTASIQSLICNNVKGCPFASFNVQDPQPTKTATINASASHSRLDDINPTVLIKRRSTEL
T1 sequence (Q63921 whole entry): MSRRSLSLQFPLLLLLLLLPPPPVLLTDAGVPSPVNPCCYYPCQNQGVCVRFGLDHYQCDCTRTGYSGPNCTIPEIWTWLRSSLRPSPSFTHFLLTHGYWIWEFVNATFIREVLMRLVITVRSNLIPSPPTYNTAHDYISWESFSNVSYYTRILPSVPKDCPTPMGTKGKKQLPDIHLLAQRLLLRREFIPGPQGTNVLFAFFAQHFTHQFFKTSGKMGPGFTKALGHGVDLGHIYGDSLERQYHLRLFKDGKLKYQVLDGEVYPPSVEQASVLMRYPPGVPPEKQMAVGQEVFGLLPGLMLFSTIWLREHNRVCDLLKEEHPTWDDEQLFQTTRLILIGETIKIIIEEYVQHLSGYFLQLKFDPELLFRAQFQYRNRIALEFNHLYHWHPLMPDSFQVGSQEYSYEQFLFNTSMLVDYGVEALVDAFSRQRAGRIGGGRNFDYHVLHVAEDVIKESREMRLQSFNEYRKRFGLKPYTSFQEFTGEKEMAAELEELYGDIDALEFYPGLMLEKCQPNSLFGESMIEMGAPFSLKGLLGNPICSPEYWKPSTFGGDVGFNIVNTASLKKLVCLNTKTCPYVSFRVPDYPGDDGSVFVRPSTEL
Put plainly: In vitro for prostaglandin G/H synthase inhibitory activity against rat basophil leukemia type 1 cell homogenates, by measuring the radioactivity of [14C]-PGD2.

Assay [3] deals with T2, Polyunsaturated fatty acid 5-lipoxygenase (Rattus norvegicus, UniProt P12527).
T2 sequence (P12527 whole entry): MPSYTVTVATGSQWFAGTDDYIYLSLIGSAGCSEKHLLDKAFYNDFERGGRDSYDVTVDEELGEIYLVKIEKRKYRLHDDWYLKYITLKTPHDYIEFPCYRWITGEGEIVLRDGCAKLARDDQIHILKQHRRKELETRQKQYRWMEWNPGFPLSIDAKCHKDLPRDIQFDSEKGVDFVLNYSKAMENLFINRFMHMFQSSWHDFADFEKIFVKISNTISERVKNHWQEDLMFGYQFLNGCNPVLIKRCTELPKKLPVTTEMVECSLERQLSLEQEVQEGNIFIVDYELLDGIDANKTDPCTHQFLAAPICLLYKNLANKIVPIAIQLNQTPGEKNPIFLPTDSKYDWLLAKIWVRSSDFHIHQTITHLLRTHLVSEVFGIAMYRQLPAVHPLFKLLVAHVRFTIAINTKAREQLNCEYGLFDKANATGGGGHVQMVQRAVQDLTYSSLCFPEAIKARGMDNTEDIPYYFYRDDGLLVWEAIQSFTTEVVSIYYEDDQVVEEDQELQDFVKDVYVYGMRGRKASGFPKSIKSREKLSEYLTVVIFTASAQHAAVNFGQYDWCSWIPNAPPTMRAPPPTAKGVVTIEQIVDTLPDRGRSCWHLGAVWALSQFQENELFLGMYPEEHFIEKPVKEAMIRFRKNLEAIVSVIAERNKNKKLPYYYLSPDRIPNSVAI
Put plainly: In vitro inhibition of 5-lipoxygenase in rat (peritoneal assay).

In assay [4] the target is T2, Polyunsaturated fatty acid 5-lipoxygenase. Put plainly: Iin vitro inhibition of 5-lipoxygenase activity in rat basophil leukemia type 1(RBL1) cell homogenates, (reduction of [14C]-5-HETE formation).
Assay [5] has the same target. Put plainly: In vitro inhibitory activity against 5-Lipoxygenase in rat by Peritoneal 5-lipoxygenase assay.

In the assay with Mus musculus [1], `O=C(O)C(O)=CC=Cc1ccccc1` gave an ED50 of over 5 mg ear-1.

Take `NC1=NN(c2cccc(C(F)(F)F)c2)CC1` [BW-755C]: the ED50 in the assay on Mus musculus [2] turned out to be 75 mg/kg; in the assay on Mus musculus [1] it was 0.08 mg ear-1. For the same molecule, the half-inhibitory concentration (IC50) at Cyclooxygenase amounted to 6 µM.

`CCOC(=O)C(=O)C=C/C(Sc1ccccc1)=C(\O)c1ccccc1` gave an ED50 with Mus musculus [1] of over 2 mg ear-1.

In the assay with Mus musculus [1], `CCO/C(O)=C(/C=CC=O)Sc1ccccc1` showed an ED50 of 2 mg ear-1.

In turn, `CCOC(=O)C(=O)C=C/C(=C(\O)OCC)c1ccccc1` showed an ED50 with Mus musculus [1] of over 2 mg ear-1.

`O=c1c(O)c(-c2ccc(O)c(O)c2)oc2cc(O)cc(O)c12` [QUERCETIN]: the ED50 in the assay with Mus musculus [2] was over 100 mg/kg; with Mus musculus [1], 1 mg ear-1. For the same molecule, the 50% inhibitory concentration (IC50) at Cyclooxygenase was over 50 µM.

In the case of `CCOC(=O)C(=O)C=C/C(SCc1ccccc1)=C(\O)OCC`, the ED50 with Mus musculus [1] is listed as over 2 mg ear-1.

In the case of `CCOC(=O)C(=O)C=C/C(O)=C(\O)OCC`, the ED50 in the assay with Mus musculus [1] is reported as over 2 mg ear-1.

In the assay with Mus musculus [1], `CCOC(=O)C(=O)C=C/C(C(=O)c1ccccc1)=C(\O)OCC` returned an ED50 of over 2 mg ear-1.

As to `CC(C)(C)c1cc(/C=C2\CCOC2=O)cc(C(C)(C)C)c1O`, the ED50 in the assay on Mus musculus [2] stood at 100 mg/kg; in the assay on Mus musculus [1] it was 0.3 mg ear-1.

Regarding `CCO/C(O)=C(/C=CC(=O)C(=O)c1ccccc1)Sc1ccccc1`, the concentration for half-maximal inhibition (IC50) in assay [3] came to 3 µM; in assay [4] it was 2 µM; on Cyclooxygenase, 12 µM. In addition, the ED50 was over 50 mg/kg with Mus musculus [2] and over 2 mg ear-1 with Mus musculus [1].

Consider `CCOC(=O)C(=CC=C(SC)C(=O)c1ccccc1)N(C)C`, for which the half-inhibitory concentration (IC50) (in assay [5]; in assay [4]; on Cyclooxygenase) was over 50 µM in each case.

For the molecule `CC(Cc1ccc(O)c(O)c1)C(C)Cc1ccc(O)c(O)c1` (stereo not given) [NORDIHYDROGUAIARETIC ACID], the ED50 with Mus musculus [2] is over 100 mg/kg; in the assay with Mus musculus [1], 0.1 mg ear-1. The IC50 on Cyclooxygenase was over 50 µM.

Consider `CCSC(=CC=C(O)C(=O)O)C(=O)O`, for which, in the assay with Mus musculus [1], the ED50 is over 0.5 mg ear-1.

Consider `CC1=NN(CCOc2ccc3ccccc3c2)C(=O)C1` [NAFAZATROM], for which the ED50 in the assay with Mus musculus [2] is over 100 mg/kg; with Mus musculus [1] it was 2 mg ear-1.

Take `CCOC(=O)C(=CC=C(C(=O)OCC)N(C)C)Sc1ccccc1`: the ED50 with Mus musculus [1] is listed as over 2 mg ear-1.
